Target: IscU (Azotobacter vinelandii, UniProt O31270)
Experiment: UV/Vis absorption and visible CD during in vitro Fe-S cluster assembly
Type: binding
Conditions: anaerobic, IscS, Cys, DTT, cluster assembled in situ

IscU, sequence (O31270 whole entry): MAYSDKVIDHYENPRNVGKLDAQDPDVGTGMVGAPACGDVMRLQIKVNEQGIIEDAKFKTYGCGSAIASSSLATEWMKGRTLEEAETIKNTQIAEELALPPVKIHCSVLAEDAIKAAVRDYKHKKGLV

[S]1[Fe][S][Fe]1 [[2Fe-2S] cluster]
UV/Vis absorption and visible CD during in vitro Fe-S cluster assembly: shows the formation of the [2Fe-2S] cluster as previously reported for IscU (A)

From article PMC5065719 (Biochemistry, 2013)
